Where two headings read alike, the source gives them in different places.
What was measured:
Factor XIa = Factor XIa (Homo sapiens, UniProt P03951); assay: Factor XIa inhibition assay utilizing a fluorophore-quencher pair peptide substrate (FLINT); type: biochemical; settings: for IC50: read-out: FXIa IC50; for Ki: read-out: FXIa Ki
Excerpt: Biological Example 1: Factor XIa Inhibition Assay Utilizing a Fluorophore-Quencher Pair Peptide Substrate
A fluorescence intensity (FLINT) based assay was used to monitor inhibition of Factor XIa. The peptide substrate, 5Fam-KLTRAETV-K5Tamra (purchased from New England Peptide) was chosen based on the FXI sequence. Conversion of zymogen FXI to its activated form, FXIa, occurs by proteolytic cleavage by […] at two sites, Arg146 and Arg180. The custom peptide used in this assay was based on the Arg146 cleavage site of FXI. The peptide substrate was designed with a fluorophore-quencher pair, where the fluorescence is quenched until FXIa cleaves the 8-mer peptide after the Arg residue.
The Factor XIa FLINT assay was used with the following 5Fam-KLTRAETV-K5Tamra assay buffer: 50 mM Tris, pH 7.5, 100 mM NaCl, 5 mM CaCl2), 0.1 mg/mL BSA, 0.03% CHAPS. Assay buffer was prepared by mixing all ingredients fresh. 5Fam-KLTRAETV-K5Tamra peptide substrate was first prepared at 10 mM in 100% DMSO, then diluted to 3 mM in 100% DMSO. Assay buffer was then added directly to the 3 mM stock of substrate to prepare the 30 μM 2× working concentration (15 μM final concentration). The 2× Factor XIa stock solution was prepared by diluting 6.562 μM stock in 1× assay buffer for a […].
Test compound(s) were run in an 11-point, 3-fold serial dilution with a final top compound concentration of 100 nM. Final DMSO in assay was 2%. FXIa was preincubated with compound for 30-minutes and then substrate was added to initiate the reaction. The assay was run with kinetic (KIN) reads at 5 min intervals over 30 minutes. The time course was linear using […] FXIa greater than 30 minutes. More specifically, the assay was run as follows: • 100 nL of 0.01 mM test compound was dispensed into black 384-well non-binding Greiner BioOne 784900 plate for 0.1 μM final concentration; • 5 μL of 1× assay buffer was dispensed to column 24 (low control) and 5 μL 2× Factor XIa solution was dispensed to columns 1-23 (column 23 high control); • the plate was centrifuged with a “cover” plate at 500 rpm for 1 min • the plate was pre-incubated for 30 minutes at room temperature with plate covered; • 5 μL of 2×5Fam-KLTRAETV-K5Tamra peptide substrate was dispensed into the entire plate, columns 1-24; • the plate was centrifuged with a “cover” plate at 500 rpm for 1 min; • the plate was read monitoring fluorescence intensity on the BMG PHERAStar at room temperature, using fluorescence module 485 nm/520 nm.
Percent inhibition (IC50) curves were generated per compound tested, and data was analyzed using a 4-parameter logistic fit using GeneData Screener. The relative fluorescence unit (RFU) values were normalized to percent inhibition using the following equation: % inhibition=((HC−LC)−(compound−LC)/(HC−LC))*100
where LC−low control=mean signal of no Factor XIa or 100% inhibition of Factor XIa; HC−high control=mean signal of Factor XIa+5Fam-KLTRAETV-K5Tamra peptide substrate with DMSO only.
An 11-point dose response curve for the test compound(s) was generated using GENDATA to determine IC50 value based on the following equation: Y=Bottom+(Top−Bottom)/(1+10^((log IC50−X)*HillSlope))
where Y is the % inhibition in the presence of X inhibitor concentration, Top=high control=mean signal of Factor XIa+5Fam-KLTRAETV-K5Tamra peptide substrate with DMSO only; Bottom=low control−mean signal of no Factor XIa or 100% inhibition of Factor XIa; HillSlope−Hill coefficient; and IC50=concentration of compound with 50% inhibition in relation to top/high control.
(§1) Representative compounds of formula (I) of the present invention were tested according to the procedure described in Biological Example 1 and Biological Example 2 above, with results as listed in Table 3, below.

human plasma kallikrein = human plasma kallikrein (Homo sapiens, UniProt P03952); assay: Kallikrein inhibition assay utilizing a quenched AMC peptide substrate (FLINT); type: biochemical; settings: 30 min preincubation, 50 μM Z-Gly-Pro-Arg-AMC, 2 nM kallikrein
Chain of human plasma kallikrein (P03952 391-638 limits assumed): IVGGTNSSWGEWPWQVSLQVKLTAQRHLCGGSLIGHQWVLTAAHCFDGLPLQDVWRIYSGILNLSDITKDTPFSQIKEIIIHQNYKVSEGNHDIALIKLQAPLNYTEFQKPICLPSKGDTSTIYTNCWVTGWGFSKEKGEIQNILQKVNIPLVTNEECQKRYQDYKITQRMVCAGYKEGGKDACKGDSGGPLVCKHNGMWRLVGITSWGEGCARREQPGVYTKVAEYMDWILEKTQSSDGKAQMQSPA
Chain of human plasma kallikrein (P03952 20-390 partner limits assumed): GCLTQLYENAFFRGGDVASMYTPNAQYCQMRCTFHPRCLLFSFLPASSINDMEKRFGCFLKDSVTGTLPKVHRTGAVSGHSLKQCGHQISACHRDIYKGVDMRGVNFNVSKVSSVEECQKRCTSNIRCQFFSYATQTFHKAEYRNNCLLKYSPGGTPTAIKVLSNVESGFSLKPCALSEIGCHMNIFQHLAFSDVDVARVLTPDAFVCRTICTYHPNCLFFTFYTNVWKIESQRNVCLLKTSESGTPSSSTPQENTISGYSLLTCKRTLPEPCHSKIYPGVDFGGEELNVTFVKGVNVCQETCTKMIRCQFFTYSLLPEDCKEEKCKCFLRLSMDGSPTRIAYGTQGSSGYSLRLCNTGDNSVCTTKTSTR
Excerpt: Biological Example 2: Kallikrein Inhibition Assay Utilizing a Quenched AMC Peptide Substrate
A fluorescence intensity (FLINT) based assay was used to monitor inhibition of human plasma kallikrein. The peptide substrate, Z-Gly-Pro-Arg-AMC (Purchased from Bachem; Catalog #1-1150) was chosen based on its relatively low KM for kallikrein which enables running the assay at lower substrate concentrations to control background fluorescence.
The Kallikrein FLINT assay was used with the following Z-Gly-Pro-Arg-AMC assay buffer: 50 mM Tris, pH 7.5, 100 mM NaCl, 5 mM CaCl2), 0.1 mg/mL BSA, 0.03% CHAPS. Assay buffer was prepared by mixing all ingredients fresh. 2× Z-Gly-Pro-Arg-AMC peptide substrate was prepared by diluting 10 mM stock into 1× assay buffer for a 100 μM working concentration (50 μM final concentration). The 2× kallikrein stock solution was prepared by diluting 14.76 μM stock in 1× assay buffer for a 4 nM working stock solution (2 nM final concentration).
Test compound(s) were run in an 11-point, 3-fold serial dilution with a final top compound concentration of 1 μM. Final DMSO in assay was 2%. Plasma kallikrein was pre-incubated for 30-minute with compound and then 50 μM substrate was added to initiate the reaction. The assay was run with kinetic (KIN) reads at 5 min intervals over 30 minutes. The time course was linear using 2 nM kallikrein greater than 30 minutes. More specifically, the assay was run as follows: • 100 nL of 0.1 mM test compound was dispensed into black 384-well non-binding Greiner BioOne 784900 plate for 1 μM final concentration; • 5 μL of 1× assay buffer was dispensed to columns 24 (low control) and 5 μL 2× human kallikrein enzyme solution was dispensed to columns 1-23 (column 23 high control); • the plate was centrifuged with a “cover” plate at 500 rpm for 1 min • the plate was pre-incubated for 30 minutes at room temperature with plate covered; • 5 μL of 2× Z-Gly-Pro-Arg-AMC peptide substrate was dispensed into the entire plate, columns 1-24; • the plate was centrifuged with a “cover” plate at 500 rpm for 1 min; the plate was read monitoring fluorescence intensity on the BMG PHERAStar at room temperature, using fluorescence module 340 nm/440 nm.
Percent inhibition (IC50) curves were generated per compound tested, and data was analyzed using a 4-parameter logistic fit using GeneData Screener. The relative fluorescence unit (RFU) values were normalized to percent inhibition using the following equation: % inhibition=((HC−LC)−(compound−LC)/(HC−LC))*100 where LC—low control=mean signal of human kallikrein enzyme or 100% inhibition of human kallikrein enzyme; HC—high control=mean signal of […]+Z-Gly-Pro-Arg-AMC peptide substrate with DMSO only.
An 11-point dose response curve for the test compound(s) was generated using GENDATA to determine IC50 value based on the following equation: Y=Bottom+(Top−Bottom)/(1+10^((log IC50−X)*HillSlope)) • where Y is the % inhibition in the presence of X inhibitor concentration, Top=high control=mean signal of human kallikrein enzyme+Z-Gly-Pro-Arg-AMC peptide substrate with DMSO only; Bottom=low control−mean signal of no human kallikrein enzyme or 100% inhibition of human kallikrein enzyme; HillSlope—Hill coefficient; and IC50=concentration of compound with 50% inhibition in relation to top/high control.
as §1

[1] = cells that print μM themselves in the nM column, same assay conditions
[2] = 30 min preincubation, 5Fam-KLTRAETV-K5Tamra substrate 15 μM final, kinetic reads
[3] = cells that print μM themselves in the nM column

Chain of Factor XIa (P03951 388-625 limits assumed): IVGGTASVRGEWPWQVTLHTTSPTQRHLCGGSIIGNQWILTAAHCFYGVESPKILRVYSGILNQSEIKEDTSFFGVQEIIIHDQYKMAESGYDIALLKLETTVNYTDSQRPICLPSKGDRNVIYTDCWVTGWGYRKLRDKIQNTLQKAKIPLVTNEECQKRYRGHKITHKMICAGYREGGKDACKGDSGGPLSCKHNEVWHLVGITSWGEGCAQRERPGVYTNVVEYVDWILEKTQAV
Chain of Factor XIa (P03951 19-387 partner limits assumed): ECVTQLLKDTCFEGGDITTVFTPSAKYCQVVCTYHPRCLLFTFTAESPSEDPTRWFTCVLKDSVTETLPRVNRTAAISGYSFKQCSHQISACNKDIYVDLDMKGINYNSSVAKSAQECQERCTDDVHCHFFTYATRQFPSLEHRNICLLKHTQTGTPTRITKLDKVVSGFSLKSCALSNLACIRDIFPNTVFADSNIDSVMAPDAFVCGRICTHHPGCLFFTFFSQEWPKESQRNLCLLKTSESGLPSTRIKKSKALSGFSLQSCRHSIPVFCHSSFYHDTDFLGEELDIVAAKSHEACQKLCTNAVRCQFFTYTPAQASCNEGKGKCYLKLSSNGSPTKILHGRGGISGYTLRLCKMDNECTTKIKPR

| Compound | IC50 (Factor XIa; [1]) [µM] | Ki (Factor XIa) [µM] | IC50 (human plasma kallikrein) [µM] | IC50 (Factor XIa; [2]) [µM] | Ki (Factor XIa; [3]) [µM] |
| --- | --- | --- | --- | --- | --- |
| CC1(C)Cc2ccc(Cl)c(F)c2-c2cc(=O)n3c(c2C(=O)N1)CC[C@@H]3c1ncc(-c2ccc(N)nc2F)[nH]1 (single isomer, unassigned) [Compound 21, (R*)-12-(5-(6-amino-2-fluoropyridin-3-yl)-1H-imidazol-2-yl)-7-chloro-8-fluoro-3,3-dimethyl-3,4,13,14-tetrahydrobenzo[5,6]azocino[4,3-g]indolizine-1,10(2H,12H)-dione] | 1.2 | 0.598 | > 10 |  |  |
| CC1(C)Cc2ccc(Cl)c(F)c2-c2cc(=O)n3c(c2C(=O)N1)CC[C@@H]3c1ncc(-c2ccc(N)nc2F)[nH]1 (single isomer, unassigned) [Compound 28, (R*)-12-(5-(6-amino-2-fluoropyridin-3-yl)-1H-imidazol-2-yl)-7-chloro-8-fluoro-3,3-dimethyl-3,4,13,14-tetrahydrobenzo[5,6]azocino[4,3-g]indolizine-1,10(2H,12H)-dione] |  | ~0.392 | > 10 | ~0.783 |  |
| CC1(C)Cc2ccc(Cl)c(F)c2-c2cc(=O)n3c(c2C(=O)N1)CC[C@H]3c1ncc(-c2ccc(N)nc2F)[nH]1 (single isomer, unassigned) [Compound 29, (S*)-12-(5-(6-amino-2-fluoropyridin-3-yl)-1H-imidazol-2-yl)-7-chloro-8-fluoro-3,3-dimethyl-3,4,13,14-tetrahydrobenzo[5,6]azocino[4,3-g]indolizine-1,10(2H,12H)-dione] |  | 0.0004 | 0.35 | 0.0008 |  |
| Nc1ccc(-c2cnc(C3CCc4c5c(cc(=O)n43)-c3c(ccc(Cl)c3F)-c3ccncc3NC5=O)[nH]2)c(F)n1 (single isomer, unassigned) [Compound 36, (S*)-3-(5-(6-amino-2-fluoropyridin-3-yl)-1H-imidazol-2-yl)-8-chloro-7-fluoro-2,3-dihydrobenzo[5,6]pyrido[4′,3′:7,8]azocino[4,3-g]indolizine-5,16(1H,15H)-dione] | ~5.75 |  | > 10 |  | ~2.87 |
| Nc1ccc(-c2cnc(C3CCc4c5c(cc(=O)n43)-c3c(ccc(Cl)c3F)-c3ccncc3NC5=O)[nH]2)c(F)n1 (single isomer, unassigned) [Compound 37, (R*)-3-(5-(6-amino-2-fluoropyridin-3-yl)-1H-imidazol-2-yl)-8-chloro-7-fluoro-2,3-dihydrobenzo[5,6]pyrido[4′,3′:7,8]azocino[4,3-g]indolizine-5,16(1H,15H)-dione] |  | ~0.0391 | 3.95 | ~0.078 |  |
| Nc1ccc(-c2cnc(C3CCc4c5c(cc(=O)n43)-c3c(ccc(Cl)c3F)-c3ccccc3NC5=O)[nH]2)c(F)n1 (single isomer, unassigned) [Compound 38, (R*)-3-(5-(6-amino-2-fluoropyridin-3-yl)-1H-imidazol-2-yl)-8-chloro-7-fluoro-2,3-dihydrodibenzo[5,6:7,8]azocino[4,3-g]indolizine-5,16(1H,15H)-dione] |  | 0.0186 | 1.62 | 0.0372 |  |
| Nc1ccc(-c2cnc(C3CCc4c5c(cc(=O)n43)-c3c(ccc(Cl)c3F)-c3ccccc3NC5=O)[nH]2)c(F)n1 (single isomer, unassigned) [Compound 39, (S*)-3-(5-(6-amino-2-fluoropyridin-3-yl)-1H-imidazol-2-yl)-8-chloro-7-fluoro-2,3-dihydrodibenzo[5,6:7,8]azocino[4,3-g]indolizine-5,16(1H,15H)-dione] | > 10 |  | > 10 |  | > 5 |
| Nc1ccc(-c2cnc(C3CCc4c5c(cc(=O)n43)-c3c(ccc(Cl)c3F)CC3(CC3)NC5=O)[nH]2)c(F)n1 (single isomer, unassigned) [Compound 55] |  | 0.0001 | 0.09 | 0.0003 |  |
| O=C1NC2(CC2)Cc2ccc(Cl)c(F)c2-c2cc(=O)n(C(CC3CC3)c3ncc(-c4cc[n+]([O-])cc4)[nH]3)cc21 (single isomer, unassigned) [Compound 56, (S*)-4-(2-(1-(11-chloro-12-fluoro-2,5-dioxo-2,5,6,8-tetrahydro-3H-spiro[benzo[e]pyrido[3,4-c]azocine-7,1′-cyclopropan]-3-yl)-2-cyclopropylethyl)-1H-imidazol-5-yl)pyridine 1-oxide] |  | 0.441 | > 10 | 0.882 |  |
| O=C1NC2(CC2)Cc2ccc(Cl)c(F)c2-c2cc(=O)n(C(CC3CC3)c3ncc(-c4cc[n+]([O-])cc4)[nH]3)cc21 (single isomer, unassigned) [Compound 57, (R*)-4-(2-(1-(11-chloro-12-fluoro-2,5-dioxo-2,5,6,8-tetrahydro-3H-spiro[benzo[e]pyrido[3,4-c]azocine-7,1′-cyclopropan]-3-yl)-2-cyclopropylethyl)-1H-imidazol-5-yl)pyridine 1-oxide] | 9.69 |  | > 10 |  | 4.84 |

From patent US11897880B2, “7,8-dihydrobenzo[e]pyrido[3,4-c]azocine-2,5(3H,6H)-dione derivatives useful as a factor XIa inhibitors” (Janssen Pharmaceutica NV, priority 2021, dated 2024)
